Assay results published in patent publication US12612386B2, “Heteroaryl-triazole compounds as pesticides” (Bayer Aktiengesellschaft, priority 2020, dated 2026).

Columns and labels:
Type in all cases: in vivo
[1] = system: larvae of the banded cucumber beetle (Diabrotica balteata); assay: Diabrotica balteata spray test; conditions: 168 h, 100 g/ha (=32 μg/well), after 7 days, read-out: efficacy (seedling growth)
Procedure: Diabrotica balteata—Spray Test
(§1) • Solvent: 78.0 parts by weight of acetone • 1.5 parts by weight of dimethylformamide • Emulsifier: alkylarylpolyglycol ether
(§2) To produce a suitable preparation of active compound, 1 part by weight of active compound is mixed with the stated amount of solvent, and the concentrate is diluted with water, containing an emulsifier concentration of 1000 ppm, to the desired concentration. Further test concentrations are prepared by dilution with emulsifier containing water.
Soaked wheat seeds (Triticum aestivum) are placed in a multiple well plate filled with agar and some water and are incubated for 1 day to germinate (5 seeds per well). The germinated wheat seeds are sprayed with a test solution containing the desired concentration of the active ingredient. Afterwards each unit is infected with 10-20 larvae of the banded cucumber beetle (Diabrotica balteata).
After 7 days efficacy in % is determined. 100% means all the seedlings have grown up like in the untreated, uninfected control; 0% means none of the seedlings have grown.

[2] = system: green peach aphid (Myzus persicae); assay: Myzus persicae spray test (MYZUPE); conditions: 120 h; for mortality at 100 g/ha: after 5 days; for Emax at 20 g/ha: 20 g ai/ha; for Emax at 100 g/ha: 100 g ai/ha
Procedure: Myzus persicae—Spray Test
• Solvent: 78.0 parts by weight acetone • 1.5 parts by weight dimethylformamide • Emulsifier: alkylarylpoly glycol ether
as §2, with “solvents” for “solvent,”, “and” for “and the concentrate”
Chinese cabbage (Brassica pekinensis) leaf disks infected with all instars of the green peach aphid (Myzus persicae), are sprayed with a preparation of the active ingredient of the desired concentration.
After 5 days mortality in % is determined. 100% means all aphids have been killed and 0% means none of the aphids have been killed.
Myzus persicae—Spray Test (MYZUPE)
(§3) • Solvent: 78.0 parts by weight acetone • 1.5 parts by weight dimethylformamide • Emulsifier: alkylarylpolyglycol ether
After the specified period of time, mortality in % is determined. 100% means all aphids have been killed and 0% means none of the aphids have been killed.

[3] = system: larvae of the southern green stink bug (Nezara viridula); assay: whole plant or invertebrate; conditions: 96 h
Procedure: Nezara viridula—Spray Test
as §1, §2
Barley plants (Hordeum vulgare) are sprayed with a test solution containing the desired concentration of the active ingredient and are infested with larvae of the southern green stink bug (Nezara viridula).
After 4 days mortality in % is determined. 100% means all the stink bugs have been killed; 0% means none of the stink bugs have been killed.

[4] = system: fall armyworm larvae (Spodoptera frugiperda); assay: whole plant or invertebrate; conditions: 168 h; for Emax at 20 g/ha / Emax at 100 g/ha: SPODFR, 7 dat (Table 4), read-out: % Efficacy; for Emax at 20 g/ha: 20 g ai/ha; for Emax at 100 g/ha: 100 g ai/ha
Procedure: Spodoptera frugiperda—Spray Test
as §3
as §2, with “solvents” for “solvent,”, “and” for “and the concentrate”
Maize (Zea mays) leaf sections are sprayed with a preparation of the active ingredient of the desired concentration. Once dry, the leaf sections are infested with fall armyworm larvae (Spodoptera frugiperda).
After 7 days mortality in % is determined. 100% means all caterpillars have been killed and 0% means none of the caterpillars have been killed.
Spodoptera frugiperda—Spray Test (SPODFR)
After the specified period of time, mortality in % is determined. 100% means all caterpillars have been killed and 0% means none of the caterpillars have been killed.

[5] = MYZUPE, 5 dat (Table 4), read-out: % Efficacy

Row | Compound | pest or weed control at 32 µg/disc, 100 g/ha [1] [%] | mortality at 100 g/ha [2] [%] | mortality at 500 g/ha [3] [%] | mortality at 100 g/ha [4] [%] | other results
1 | C[C@H](NC(=O)c1cccc(I)c1)c1ncnn1-c1cc(C(N)=O)ncn1 [I-48] | 100 | 90 | 100 | 100 | 
2 | C[C@H](NC(=O)c1cc(Cl)cc(OC(F)(F)C(F)F)c1)c1ncnn1-c1cc(C(N)=O)ncn1 [I-113, 6-(5-{(1S)-1-[3-chloro-5-(1,1,2,2-tetrafluoroethoxy)benzamido]ethyl}-1H-1,2,4-triazol-1-yl)pyrimidine-4-carboxamide] |  | 90 |  | 100 | 
3 | C[C@H](NC(=O)c1cc(OC(F)F)cc(OC(F)F)c1)c1nc(C2CC2)nn1-c1cc(C(N)=O)ncn1 [I-152] | 100 | 100 |  | 100 | 
4 | C[C@H](NC(=O)c1cc(Cl)cc(S(=O)(=O)C(F)(F)F)c1)c1ncnn1-c1cc(C#N)ccn1 [I-075 Known from WO 2019197468, reference compound] |  |  |  |  | Emax at 20 g/ha [2, 5]: 70%; Emax at 100 g/ha [2, 5]: 90%; Emax at 20 g/ha [4]: 33%; Emax at 100 g/ha [4]: 100%
5 | C[C@H](NC(=O)c1cc(Cl)cc(S(=O)(=O)C(F)(F)F)c1)c1ncnn1-c1ccccn1 [I-068 Known from WO 2019197468, reference compound] |  |  |  |  | Emax at 20 g/ha [2, 5]: 0%; Emax at 100 g/ha [2, 5]: 0%
6 | C[C@H](NC(=O)c1cc(OC(F)(F)F)cc(S(=O)(=O)C(F)(F)F)c1)c1ncnn1-c1cc(C(N)=O)ncn1 [I-58] | 100 | 90 | 100 | 100 | 
7 | CNC(=O)c1cc(-n2ncnc2[C@H](C)NC(=O)c2cccc(OC(F)(F)F)c2)ncn1 [I-110] | 100 | 90 | 100 | 100 | 
8 | CC(C)N(C)C(=O)c1cc(-n2ncnc2[C@H](C)NC(=O)c2cc(Br)cc(OC(F)F)c2)ncn1 [I-103] | 100 | 90 |  | 100 | 
9 | C[C@H](NC(=O)c1cc(Cl)cc(S(C)(=O)=O)c1)c1nc(C2CC2)nn1-c1cc(C(N)=O)ncn1 [I-150] |  | 90 | 100 | 100 | 
10 | C[C@H](NC(=O)c1cc(Cl)cc(S(C)(=O)=O)c1)c1nc(C2CC2)nn1-c1cc(C(=O)N(C)C)ncn1 [I-160] | 100 | 100 |  | 83 | 
11 | C[C@H](NC(=O)c1cc(Cl)cc(OC(F)(F)F)c1)c1nc(C2CC2)nn1-c1cc(C(=O)N(C)C)ncn1 [I-166] | 100 | 100 |  | 100 | 
12 | Cc1nc([C@H](C)NC(=O)c2cc(Br)cc(Br)c2)n(-c2cc(C(N)=O)ncn2)n1 [I-71] | 100 | 90 | 90 | 100 | 
13 | C[C@H](NC(=O)c1cc(Cl)cc(S(=O)(=O)C(F)(F)F)c1)c1ncnn1-c1cc(C(N)=O)ncn1 [I-84] | 100 | 90 | 100 | 100 | Emax at 4 g/ha ([2]; MYZUPE, 4 g ai/ha, 5 dat (Table 4), read-out: % Efficacy): 90%; Emax at 20 g/ha [2, 5]: 100%; Emax at 100 g/ha [2, 5]: 90%; Emax at 20 g/ha [4]: 100%; Emax at 100 g/ha [4]: 100%
14 | CNC(=O)c1cc(-n2nc(C)nc2[C@H](C)NC(=O)c2cc(OC(F)F)cc(OC(F)F)c2)ncn1 [I-99] | 100 | 90 | 100 | 100 | 
15 | CC(C)NC(=O)c1cc(-n2ncnc2[C@H](C)NC(=O)c2cc(OC(F)(F)F)cc(C3(C#N)CC3)c2)ncn1 [I-163] | 100 | 100 |  | 100 | 
16 | C[C@H](NC(=O)c1cc(I)cc(OC(F)F)c1)c1ncnn1-c1cc(C(N)=O)ncn1 [I-162] | 100 | 90 | 100 | 100 | 

Row | Compound | pest or weed control at 32 µg/disc, 100 g/ha [1] [%] | mortality at 100 g/ha [2] [%] | mortality at 500 g/ha [3] [%] | mortality at 100 g/ha [4] [%] | other results
17 | C[C@H](NC(=O)c1cc(OC(F)(F)F)cc(C2CC2)c1)c1nc(C2CC2)nn1-c1cc(C(=O)N(C)C)ncn1 [I-159] | 100 | 90 |  | 100 | 
18 | CNC(=O)c1cc(-n2nc(C)nc2[C@H](C)NC(=O)c2cc(Br)cc(OC(F)F)c2)ncn1 [I-88] | 100 | 100 | 100 | 100 | 
19 | C[C@H](NC(=O)c1cc(OC(F)(F)F)cc(C2(C#N)CC2)c1)c1nc(C2CC2)nn1-c1cc(C(=O)N(C)C)ncn1 [I-167] | 80 | 100 |  | 100 | 
20 | C[C@H](NC(=O)c1cc(Cl)cc(S(=O)(=O)C(F)F)c1)c1nc(C2CC2)nn1-c1cc(C(=O)N(C)C)ncn1 [I-161] | 100 | 90 |  | 100 | 
21 | C[C@H](NC(=O)c1cc(OC(F)(F)F)cc(C2(C#N)CC2)c1)c1ncnn1-c1cc(C(=O)NC2CC2)ncn1 [I-169] | 100 | 90 |  | 100 | 
22 | C[C@H](NC(=O)c1cc(Br)cc(C#N)c1)c1ncnn1-c1cc(C(N)=O)ncn1 [I-124] | 100 | 90 | 100 | 100 | mortality at 100 g/ha [3]: 100%
23 | C[C@H](NC(=O)c1cc(Br)cc(S(C)(=O)=O)c1)c1nc(C2CC2)nn1-c1cc(C(N)=O)ncn1 [I-143] |  | 100 | 100 | 100 | 
24 | C[C@H](NC(=O)c1cc(OC(F)(F)F)cc(S(=O)(=O)C(F)F)c1)c1ncnn1-c1cc(C(N)=O)ncn1 [I-45] | 100 | 90 | 100 | 100 | 
25 | Cc1nc([C@H](C)NC(=O)c2cc(Br)cc(OC(F)(F)F)c2)n(-c2cc(C(N)=O)ncn2)n1 [I-12] | 100 | 90 | 100 | 100 | 
26 | CC(C)N(C)C(=O)c1cc(-n2ncnc2[C@H](C)NC(=O)c2cc(OC(F)F)cc(OC(F)F)c2)ncn1 [I-97] |  | 90 |  | 100 | 
27 | C[C@H](NC(=O)c1cc(Br)cc(OC(F)(F)C(F)F)c1)c1ncnn1-c1cc(C(N)=O)ncn1 [I-112] | 100 | 100 |  | 100 | 
28 | C[C@H](NC(=O)c1cc(C(F)(F)F)cc(S(C)(=O)=O)c1)c1nc(C2CC2)nn1-c1cc(C(=O)N(C)C)ncn1 [I-164] | 80 | 100 |  |  | 
29 | CCNC(=O)c1cc(-n2ncnc2[C@H](C)NC(=O)c2cc(OC(F)(F)F)cc(C3(C#N)CC3)c2)ncn1 [I-168] | 100 | 100 |  | 100 | 
30 | C[C@H](NC(=O)c1ccnc(OC(F)(F)F)c1)c1ncnn1-c1cc(C(N)=O)ncn1 [I-132] | 100 |  | 100 | 100 | 
31 | C[C@H](NC(=O)c1cc(OC(F)(F)F)cc(S(=O)(=O)C(F)F)c1)c1nc(C2CC2)nn1-c1cc(C(=O)N(C)C)ncn1 [I-156] | 100 | 90 |  | 100 | 
